Source: patent US20020016346A1, “Method for enhancing outflow of aqueous humor in treatment of glaucoma” (The Regents University of California, a California …, priority 1994, published 2002)

How the values were obtained:
[1] = target: T1, Na—K—Cl cotransport (Bos taurus, UniProt F1MS08); assay: K influx (86Rb) in bovine TM cell monolayers; assay type: cell-based; details: bovine TM cells
T1 sequence (F1MS08 1-1204): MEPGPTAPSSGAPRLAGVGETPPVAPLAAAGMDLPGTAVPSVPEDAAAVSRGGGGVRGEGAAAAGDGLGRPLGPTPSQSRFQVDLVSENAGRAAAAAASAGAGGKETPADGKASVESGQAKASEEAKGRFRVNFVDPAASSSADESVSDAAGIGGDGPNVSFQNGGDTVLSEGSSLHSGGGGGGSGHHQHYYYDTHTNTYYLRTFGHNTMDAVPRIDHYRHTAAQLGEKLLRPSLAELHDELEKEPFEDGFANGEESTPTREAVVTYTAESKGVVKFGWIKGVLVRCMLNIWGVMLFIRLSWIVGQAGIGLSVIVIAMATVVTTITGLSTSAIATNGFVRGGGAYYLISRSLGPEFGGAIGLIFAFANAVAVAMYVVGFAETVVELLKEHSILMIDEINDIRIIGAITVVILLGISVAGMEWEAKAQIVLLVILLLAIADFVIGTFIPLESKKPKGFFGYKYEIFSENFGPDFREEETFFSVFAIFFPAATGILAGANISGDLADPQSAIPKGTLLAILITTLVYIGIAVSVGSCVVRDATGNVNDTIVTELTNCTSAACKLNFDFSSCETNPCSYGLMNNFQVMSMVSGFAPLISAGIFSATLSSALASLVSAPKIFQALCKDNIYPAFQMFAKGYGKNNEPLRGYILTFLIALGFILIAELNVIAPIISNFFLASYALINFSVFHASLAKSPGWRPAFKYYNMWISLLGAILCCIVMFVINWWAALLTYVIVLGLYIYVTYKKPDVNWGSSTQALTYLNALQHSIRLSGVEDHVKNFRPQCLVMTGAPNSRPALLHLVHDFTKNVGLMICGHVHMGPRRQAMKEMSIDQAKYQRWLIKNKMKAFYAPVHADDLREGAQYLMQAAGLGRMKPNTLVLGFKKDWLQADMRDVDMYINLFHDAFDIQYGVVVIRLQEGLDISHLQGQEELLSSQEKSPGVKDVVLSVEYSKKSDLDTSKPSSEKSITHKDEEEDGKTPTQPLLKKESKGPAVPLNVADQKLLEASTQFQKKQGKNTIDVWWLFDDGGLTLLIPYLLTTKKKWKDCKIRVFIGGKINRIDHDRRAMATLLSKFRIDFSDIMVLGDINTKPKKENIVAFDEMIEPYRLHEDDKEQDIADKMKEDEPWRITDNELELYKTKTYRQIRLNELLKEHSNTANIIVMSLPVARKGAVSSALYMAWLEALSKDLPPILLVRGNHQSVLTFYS
Description: (§1) Details of this method have been published previously (O'Donnell, M. E., supra, 1989). Briefly, bovine or human TM cell monolayers on 24 well plates were equilibrated for 10 minutes at 37° C. in a Hepes-buffered minimal essential medium (MEM) containing (in mM): 144 Na, 147 Cl, 5.8 K, 1.2 Ca, 4.2 HCO3, 0.4 H2PO4, […], 0.4 SO4, 5.6 glucose and 20 Hepes. […] The assay medium also contained ^86Rb (1 μCi/ml) (Dupont New England Nuclear, Boston, Mass.). The assay was terminated by rinsing the wells with ice-cold isotonic MgCl2, then extracting the contents with 0.2% sodium dodecyl sulfate (SDS), and determining the amount of radioactive contents by liquid scintillation. Osmolarities of all preincubation and assay media were verified by osmometry (Model 3W2, Advanced Instruments, Norwood, Mass.).
The effects of hormones, neurotransmitters and second messengers on Bumetanide-sensitive K influx of bovine trabecular meshwork cells were assessed using the procedures of Example 1. […] The control is the Hepes-buffered medium containing Na, K, Cl, CA and other ions as described in Example 1B. […] The data represent the mean values±SEM of quadruplicate determinations from two experiments.

[2] = test system: eye of a rabbit; assay: Intra-ocular pressure in rabbits after subconjunctival injection; assay type: in vivo
Description: Male albino New Zealand rabbits weighing≧2 Kg were used for in vivo experiments performed under various active animal use protocols approved by the Institutional Animal Care and Use Committee at UC Davis. Animals were sedated with an intravenous dose of Napentabarbitol, 1-2 mg/Kg to permit their handling and frequent measurement of intra-ocular pressure (IOP). Topical anesthesia consisting of Proparacaine HCl (Alcaine™) was used for IOP measurements. A pneumatonometer (Mentor O & O Classic Model 30 Penumatonometer™, Norwell, Mass.) calibrated to a known (25 mmHg) pressure prior to each experiment was used for all IOP measurements. This model of Pneumatonometer provides a readout of standard deviation of each measurement; only measurements with a standard deviation of≦1 mmHg were accepted and most were less than 0.5 mmHg. Following sedation, IOP measurements were carried out over at least 30 minutes to assure that a stable baseline IOP was present.
Drugs and/or vehicle was administered to one eye of each animal via subconjunctival injection in order to bypass any barriers to drug penetration, such as an intact corneal and conjunctival epithelium and to achieve rapid and high concentrations of drug, bypassing epithelial barriers. The contralateral eye treated only with vehicle served as a control for each animal. Two syringes were prepared for each experiment, one containing drug and vehicle, the other containing only vehicle. […] Injections raised a prominent bleb, confirming subconjunctival placement of the drug or vehicle. This bleb then smoothed out over about ten minutes, indicating diffusion of the drug or vehicle throughout the subconjunctival space.
Measurements of intra-ocular pressure were taken at various intervals following the subconjunctival administration of the drug and/or vehicle. IOP in both eyes fluctuated over time reflecting the level of anesthesia. During the course of the experiment, the animal handlers and investigators were masked as to which eve had received the drug or control injection.

[3] = test system: bovine TM cells; assay: TM cell volume by electronic cell sizing (Coulter Counter); assay type: cell-based; details: 30 minute exposure; bumetanide 10 μM, ethacrynic acid 1 mM; versus Hepes MEM control
Description: By the second method, TM cells were trypsinized briefly in Ca-free medium, then rinsed with medium containing trypsin inhibitor and suspended in Hepes MEM. Mean cell volumes were then analyzed by electronic cell sizing on a Coulter Counter™ […] (Model ZM), with channelizer (C256), using at least 50,000 cells per data point and an orifice diameter of 140 μm. Aliquots of suspended cells were diluted into Hepes MEM containing the tonicity and/or agents to be evaluated. Mean cell volumes of each suspension aliquot were followed over time, starting at 1 minute after addition of cells to the assay media. Cell suspensions were maintained at 37° C. throughout the assay period. Absolute volumes (picoliters/cell) were calculated from distribution curves of cell diameter, using a standard curve generated by polystyrene latex beads of known diameter.
In order to determine whether the Na—K—Cl cotransporter of TM cells may play a role in restoration of intracellular volume following hypertonicity-induced cell shrinkage, we evaluated the effect of hypertonicity on TM cell volume and Na^+—K^+—2Cl^− cotransport activity. […] The intracellular volume of the cells then increased over a slower time course, with volume recovering to approximately 84% by 33 minutes as shown in FIG. 3A.

[4] = target: T2, Na—K—Cl cotransport (Homo sapiens, UniProt P55011); assay: K influx (86Rb) in human TM cell monolayers; assay type: cell-based; details: human TM cells, 1 mM ethacrynic acid
T2 construct: bovine or human TM cell monolayers on 24 well plates; endogenous in cells; host or cells: primary cultured human trabecular meshwork cells
T2 sequence (P55011 1-1212): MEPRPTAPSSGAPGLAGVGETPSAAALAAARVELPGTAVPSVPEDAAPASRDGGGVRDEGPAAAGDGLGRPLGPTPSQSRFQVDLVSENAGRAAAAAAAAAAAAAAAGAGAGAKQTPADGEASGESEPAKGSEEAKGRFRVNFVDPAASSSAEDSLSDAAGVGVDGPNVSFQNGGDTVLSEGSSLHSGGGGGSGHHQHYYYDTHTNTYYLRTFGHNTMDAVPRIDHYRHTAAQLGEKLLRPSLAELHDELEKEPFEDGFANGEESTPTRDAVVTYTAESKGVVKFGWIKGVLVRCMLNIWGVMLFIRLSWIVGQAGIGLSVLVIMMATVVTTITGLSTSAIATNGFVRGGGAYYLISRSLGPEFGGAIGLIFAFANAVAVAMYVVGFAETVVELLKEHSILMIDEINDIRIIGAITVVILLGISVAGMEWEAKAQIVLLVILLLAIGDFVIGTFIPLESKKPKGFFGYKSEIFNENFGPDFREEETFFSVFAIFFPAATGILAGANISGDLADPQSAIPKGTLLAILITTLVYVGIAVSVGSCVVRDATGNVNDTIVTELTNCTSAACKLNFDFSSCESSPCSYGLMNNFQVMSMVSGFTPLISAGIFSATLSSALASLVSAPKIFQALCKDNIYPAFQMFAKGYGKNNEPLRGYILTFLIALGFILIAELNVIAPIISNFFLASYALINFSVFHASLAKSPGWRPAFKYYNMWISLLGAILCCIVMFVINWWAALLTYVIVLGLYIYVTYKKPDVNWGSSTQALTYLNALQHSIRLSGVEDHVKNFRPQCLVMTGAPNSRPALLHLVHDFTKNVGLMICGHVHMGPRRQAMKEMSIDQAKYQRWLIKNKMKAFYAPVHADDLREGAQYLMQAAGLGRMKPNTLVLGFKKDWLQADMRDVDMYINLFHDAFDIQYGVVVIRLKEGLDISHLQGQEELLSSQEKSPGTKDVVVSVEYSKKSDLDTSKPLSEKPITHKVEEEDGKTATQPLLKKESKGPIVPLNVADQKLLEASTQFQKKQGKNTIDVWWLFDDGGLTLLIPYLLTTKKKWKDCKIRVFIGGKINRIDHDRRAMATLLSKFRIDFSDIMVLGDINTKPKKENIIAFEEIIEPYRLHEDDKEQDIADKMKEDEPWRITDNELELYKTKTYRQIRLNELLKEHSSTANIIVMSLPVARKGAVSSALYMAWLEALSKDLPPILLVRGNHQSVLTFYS
Description: as §1

[5] = VP 100 nM, NE 10 μM, Ach 1 μM, cAMP 50 μM, cGMP 50 μM, A23187 1 μM, PMA 10 nM, Ca-free medium plus 5 μM BAPTA-AM, control 25.6 ± 0.71

NC[C@H](O)c1ccc(O)c(O)c1 [NE, norepinephrine]
BUMETANIDE-SENSITIVE K INFLUX [1, 5]: 18.6 ± 1.79 μmol/g protein/min

NS(=O)(=O)c1cc(C(=O)O)c(NCc2ccco2)cc1Cl [furosemide]
time after injection of significant drop in relative IOP ([2]; 0.1 cc of 100 μM furosemide subconjunctival): 25 min
maximal inhibition (relative IOP) ([2]; 0.1 cc of 100 μM furosemide subconjunctival, experiment ended at 45 minutes): 12.4%

CCCCCCCCCCCCCC(=O)O[C@@H]1[C@@H](C)[C@@]2(O)[C@@H](C=C(CO)C[C@]3(O)C(=O)C(C)=C[C@@H]23)[C@@H]2C(C)(C)[C@]12OC(C)=O [PMA, phorbol 12-myristate 13-acetate]
BUMETANIDE-SENSITIVE K INFLUX [1, 5]: 34.0 ± 1.33 μmol/g protein/min

CNc1ccc2oc(C[C@H]3O[C@@]4(CC[C@H]3C)O[C@H]([C@H](C)C(=O)c3ccc[nH]3)[C@H](C)C[C@H]4C)nc2c1C(=O)O [Compound A23187, A23187]
BUMETANIDE-SENSITIVE K INFLUX [1, 5]: 33.4 ± 5.33 μmol/g protein/min

CC(=O)OCOC(=O)CN(CC(=O)OCOC(C)=O)c1ccccc1OCCOc1ccccc1N(CC(=O)OCOC(C)=O)CC(=O)OCOC(C)=O [Ca-free, 1,2-bis (o-aminophenoxy)ethane-N,N,N′,N-tetraacetic acid acetoxymethyl ester]
BUMETANIDE-SENSITIVE K INFLUX [1, 5]: 4.9 ± 1.06 μmol/g protein/min

Nc1nc2c(nc(Br)n2[C@@H]2O[C@@H]3COP(=O)(O)O[C@H]3[C@H]2O)c(=O)[nH]1 [cGMP, 8-bromo-cyclic GMP]
BUMETANIDE-SENSITIVE K INFLUX [1, 5]: 19.7 ± 0.74 μmol/g protein/min

NS(=O)(=O)c1cc(C(=O)O)cc(NCc2ccccc2)c1Oc1ccccc1 [benzmetanide]
time after which significant reduction of IOP was observed ([2]; 0.1 cc of 7.5 μM benzmetanide subconjunctival): 15 min
decrease in IOP ([2]; 0.1 cc of 7.5 μM benzmetanide subconjunctival, after 50 minutes, relative to contralateral control eye): 24%

NC(=O)CC[C@@H]1NC(=O)[C@H](Cc2ccccc2)NC(=O)[C@H](Cc2ccc(O)cc2)NC(=O)[C@@H](N)CSSC[C@@H](C(=O)N2CCC[C@H]2C(=O)N[C@@H](CCCN=C(N)N)C(=O)NCC(N)=O)NC(=O)[C@H](CC(N)=O)NC1=O [VP, vasopressin]
BUMETANIDE-SENSITIVE K INFLUX [1, 5]: 40.4 ± 1.05 μmol/g protein/min

Cc1cccc(Nc2ccncc2S(=O)(=O)NC(=O)NC(C)C)c1 [torasemide]
IOP-lowering effect ([2]; 0.1 cc of 1 μM torasemide subconjunctival): time coarse and magnitude similar to that seen with bumetanide
average IOP lowering effect ([2]; average of two experiments, FIG. 6): over 20%

C=C(CC)C(=O)c1ccc(OCC(=O)O)c(Cl)c1Cl [ethacrynic acid]
intracellular volume [3]: significant reduction
BUMETANIDE-SENSITIVE K INFLUX ([1]; 1 mM ethacrynic acid): abolished
BUMETANIDE-SENSITIVE K INFLUX [4]: abolished
